{"source": "patent US20060014709A1", "about": "“Drug or cosmetic” (priority 2002, published 2006)", "format_in_all_cases": "in vivo", "key": {"[1]": {"test_system": "male SD rats, obstruction-released kidney (glomerular lesions and tubulointerstitial lesions)", "assay": "Obstruction release model after complete obstruction of unilateral ureter for 14 days (Example 2-1)", "design": "key to Tubulointerstitial lesions: level of lesions (quality): summed lesion score: + = 1, ++ = 2, +++ = 3 points", "settings": "rat", "excerpt": "(§1) That is, the rat was laparotomized under anesthesia with ether and left ureter was ligated with 7-0 Nylon at the height of the margin of lower pole of kidney to close the abdomen. On the 14th day after obstruction, the obstruction was released and urinary passage was reconstructed using a cuff. Thus, after 14 days, the part of ligated obstructed ureter was resected, a polyethylene tube of 25 gages (manufactured by Nippon Sherwood) was used as a cuff and inserted into and retained at the lumen from the cut end of the lower normal ureter, then the cuff was also retained in the expanded upper ureter and each of them was ligated and fixed by 7-0 Nylon to reconstruct the urinary passage. At the same time, the right kidney at the opposite side was excised. After the release of the obstruction, body weight was measured, blood was drawn on the 2nd day, 5th day and 7th day from the release to measure serum creatinine, then the rat was killed under anesthesia and the left obstruction-released kidney was excised.\nWith regard to the excised kidney, there were carried out measurements of weight of the kidney, creatinine concentration mg/dl in plasma as an indicator of kidney function and pathological test for the kidney, and also leukocyte cells which infiltrate the obstruction-released kidney were immunopathologically studied with cell surface markers for ED1 macrophages, CD11b (ED8) positive macrophages and CD5 positive lymphocytes. A number of positive cells was expressed as a number of cells per glomerulus from measured numbers of positive cells in five glomeruli, and for a number in tubulointerstitial tissue, it was expressed by the total number of cells existing in five fields of 200×magnification. For macrophages, a number of CD11b positive cells existing in glomerulus was considered as a number of CD11b^+CD2^+ macrophages and a case of existing not less than one positive cell per glomerulus was considered as positive (+). In the tubulointerstitial tissue, a number of […] 60 CD11b positive cells was considered as positive (+), or a case of CD11b^−CD2^+ macrophages dominantly increasing. Scoring of evaluation of tubulointerstitial lesions was as follows: + gets 1-point as a light lesion; ++ gets 2-point as a moderate lesion; and +++ gets3-point as a severe lesion. For glomerular lesions, when a proportion of lesioned glomeruli was decreased to not more than 40%, and for tubulointerstitial lesions, when a score of the lesions was not more than 4, it was considered as improved.\nFor glomerular lesions, by counting glomeruli causing thickening of Bowman's capsule wall and glomerular hyalinosis, a proportion of glomeruli having lesions was calculated. For tubulointerstitial lesions, by qualifying hyperplasia of tubular basement membrane and interstitial fibrosis, levels of the lesions were represented.\n(§2) An in vivo biological test was carried out for the γ-lactone derivative according to the present invention using this model. Bulk powder of a test compound was dissolved in sterile physiological saline together with gum arabic, and concentrations of the test compound and gum arabic were adjusted to 30 mg/mL and 5% respectively. The preparation was administered orally or subcutaneously injected at the dose of 30 mg/kg or 3 mg/kg every day. The administration was conducted for the total 21 days of the obstructed period for 14 days and after release of the obstruction for 7 days.\nFor test groups, a group administered single compound group, a group administered both compound group and a control group administered solution of gum arabic were set up and compared for renal functions and morphological evaluations, as well as numbers of ED1, CD5, CD11b positive cells by means of immunopathology."}, "[2]": {"test_system": "male SD rats, obstruction-released kidney (glomerular lesions and tubulointerstitial lesions)", "assay": "Obstruction release model after complete obstruction of unilateral ureter for 14 days (Example 2-2)", "design": "key to Tubulointerstitial lesions: level of lesions: summed lesion score; + = 1, ++ = 2, +++ = 3; ≤6.5 improved", "settings": "rat, 30 mg/kg subcutaneously", "excerpt": "as §1, §2\nFor cell surface markers of leukocyte cells which infiltrate the obstruction-released kidney, ED1, CD11b (ED8), CD5 and CD2 were used. […] For CD5^+, a number of not less than 20 per glomerulus was considered as positive. For glomerular lesions, which was characterized by Bowman's capsule wall, glomerular hyalinosis, dilation of urinary space pole and hypertrophy of parietal cells, 50 glomeruli were evaluated to obtain a proportion of pathologic glomeruli. For tubulointerstitial lesions, levels of the lesions were represented by qualifying hyperplasia of tubular basement membrane, tubular enlargement and atrophy and interstitial fibrosis. Scoring was as follows: + gets 1-point as a light lesion; ++ gets 2-point as a moderate lesion; and +++ gets 3-point as a severe lesion. Levels of cell infiltration were evaluated qualitatively according to the above three-point scale. For glomerular lesions, when a proportion of lesioned glomeruli was decreased to not more than 20%, and for tubulointerstitial lesions, when a score of the lesions was not more than 6.5, it was considered as improved.\nNumbers of cells positive for CD11b (ED8), CD2 and CD5 were compared by means of immunopathology, and CD11b^+CD2^+ macrophages were considered as regeneration-promoting macrophages in glomeruli and CD11b^−CD2^+CD5+ macrophages were considered as regeneration-promoting macrophages to tubulointerstitial lesions, and herewith, it was estimated whether each cell group is quantitatively dominant or not."}, "[3]": {"test_system": "male SDT rats (spontaneously type II diabetes model), complete skin-excised wounds", "assay": "Complete skin-excised model, wound healing", "settings": "SDT rat, 10 mg/kg subcutaneously every day", "excerpt": "Using male SDT rats of 28-30 weeks age, which were a spontaneously type II diabetes model, promoting effect on repair and regeneration in wound healing after complete skin excision were examined according to a partially modified method of Breitbout AS et al. (Ann Plast Surg 1999, 43: 632). That is, an animal was shaved at its back under anesthesia with ether, and skin in 2×2 cm size was excised together with panniculus carnosus in same size to make two complete skin-excised wounds per animal.\nHealings of the wounds were observed on the 1st day, 4th day, 7th day, 12h day, 15th day, 21st day and 28th day from the operation. An area of the wounds was obtained as the product of the average vertical length and the average horizontal length which were measured along with a direction of the longest part in the wound.\nA test compound was dissolved in sterile physiological saline together with gum arabic. Concentrations of the test compound and gum arabic were adjusted to 30 mg/mL and 5% respectively. The preparation was subcutaneously injected at the dose of 10 mg/kg every day. The administration was started on 6 days before the operation and continued to 28 days after the operation."}, "[4]": {"settings": "30 mg/kg subcutaneously every day for 21 days, one value per animal, 30 mg/kg"}}, "note": "Several values for one entry are separate records, joined by “and”; a condition that tells them apart may be missing. Equal values may be shown once. Entries after “also recorded” stand apart in the source; their conditions may differ. Marks after values point to notes of the source that are not given here."}
{"smiles": "C[C@@H](OC(=O)[C@@]1(Oc2ccc(F)cc2)CCC(=O)O1)c1ccc2ccccc2c1", "note": "[compound (II-1), (R)-1-naphthalen-2-ylethyl (R)-2-(4-fluorophenoxy)-5-oxotetrahydrofuran-2-carboxylate]", "values": [{"measurement": "cases with increased regeneration-promoting CD11b^+CD2^+ macrophages to glomerular lesions", "setting": "[1]; 30 mg/kg subcutaneously", "result": "all five cases"}, {"measurement": "cases with increased regeneration-promoting CD11b^−CD2^+ macrophages to tubulointerstitial lesions", "setting": "[1]; 30 mg/kg subcutaneously", "result": "four of five cases"}, {"measurement": "pathological improvement of glomerular lesions (cases)", "setting": "[1]; 30 mg/kg subcutaneously", "result": "four of five cases"}, {"measurement": "pathological improvement of tubulointerstitial lesions (cases)", "setting": "[1]; 30 mg/kg subcutaneously", "result": "no tubulointerstitial lesion was improved"}, {"measurement": "Regeneration CD11b^+CD2^+ macrophages to glomerular lesions, Determination: increase = +", "setting": "[1]; 30 mg/kg subcutaneously every day for 21 days, one value per animal", "result": "+ (a case of existing not less than one positive cell per glomerulus was considered as positive (+))"}, {"measurement": "Coincidence of two regeneration macrophages being positive", "setting": "[1]; [4]", "result": "Coincident; also recorded: Not coincident"}, {"measurement": "Glomerular lesions: proportion of lesioned glomeruli (%)", "setting": "[1]; [4]", "result": "10% and 14% and 22% and 57% and 23%"}, {"measurement": "Number of regeneration CD11b^+CD2^+ macrophages to glomerular lesions: number of positive cells per glomerulus", "setting": "[1]; [4]", "result": "1.2 cells per glomerulus and 1.7 cells per glomerulus and 1.1 cells per glomerulus and 2.8 cells per glomerulus and 2.0 cells per glomerulus"}, {"measurement": "Number of regeneration CD11b^−CD2^+ macrophages to tubulointerstitial lesions: number of positive cells (CD11b) in five fields of 200× magnification", "setting": "[1]; [4]", "result": "39 cells in five fields of 200× m and 49 cells in five fields of 200× m and 15 cells in five fields of 200× m and 65 cells in five fields of 200× m and 26 cells in five fields of 200× m"}, {"measurement": "Regeneration CD11b^−CD2^+ macrophages to tubulointerstitial lesions, Determination: increase +", "setting": "[1]; [4]", "result": "+ (a number of not more than 60 CD11b positive cells was considered as positive (+))"}, {"measurement": "Serum creatinine", "setting": "[1]; [4]", "result": "2.6 mg/dl and 1.7 mg/dl (2×) and 2.0 mg/dl and 1.8 mg/dl"}, {"measurement": "Tubulointerstitial lesions: level of lesions (quality)", "setting": "[1]; [4]", "result": "7.5 and 9.0 (2×) and 8.0 and 6.5"}, {"measurement": "cases in which regeneration-promoting CD11b^+CD2^+ macrophages were predominant in glomeruli", "setting": "[2]", "result": "all five cases"}, {"measurement": "cases in which regeneration-promoting CD11b^−CD2^+CD5+ macrophages were predominant in tubulointerstitial lesions", "setting": "[2]", "result": "negative in tubulointerstitial lesions in all cases"}, {"measurement": "pathological improvement of glomerular lesions (cases)", "setting": "[2]", "result": "only one case"}, {"measurement": "pathological improvement of tubulointerstitial lesions (cases)", "setting": "[2]", "result": "all five cases"}, {"measurement": "Regeneration macrophages to glomerular lesions, Determination Increase +", "setting": "[2]; one value per animal", "result": "+ (a case of existing not less than one positive cell per glomerulus was considered as positive (+))"}, {"measurement": "Degree of cell infiltration", "setting": "[2]; one value per animal, 30 mg/kg", "result": "+++"}, {"measurement": "Number of regeneration CD11b^+CD2^+ macrophages to glomerular lesions: number of positive cells per glomerulus CD11b^+CD2^+", "setting": "[2]; one value per animal, 30 mg/kg", "result": "1.2 cells per glomerulus and 1.7 cells per glomerulus and 1.1 cells per glomerulus and 2.8 cells per glomerulus and 2.0 cells per glomerulus"}, {"measurement": "Number of regeneration CD11b^−CD2^+CD5^+ macrophages to tubulointerstitial lesions: number of positive cells in five fields of 200× magnification, CD5^+", "setting": "[2]; one value per animal, 30 mg/kg", "result": "6 cells in five fields of 200× m and 9 cells in five fields of 200× m and 3 cells in five fields of 200× m (2×) and 4 cells in five fields of 200× m"}, {"measurement": "Number of regeneration CD11b^−CD2^+CD5^+ macrophages to tubulointerstitial lesions: number of positive cells in five fields of 200× magnification, CD11b^+", "setting": "[2]; one value per animal, 30 mg/kg", "result": "39 cells in five fields of 200× m and 49 cells in five fields of 200× m and 15 cells in five fields of 200× m and 65 cells in five fields of 200× m and 26 cells in five fields of 200× m"}, {"measurement": "Serum creatinine", "setting": "[2]; one value per animal, 30 mg/kg", "result": "2.6 mg/dl and 1.7 mg/dl (2×) and 2.0 mg/dl and 1.8 mg/dl"}, {"measurement": "Tubulointerstitial lesions: level of lesions", "setting": "[2]; one value per animal, 30 mg/kg", "result": "8.0 (4×) and 6.0"}, {"measurement": "Glomerular lesions: proportion of lesioned glomeruli (%)", "setting": "[2]; one value per animal, 50 glomeruli evaluated, 30 mg/kg", "result": "16% (2×) and 12% (2×) and 8%"}, {"measurement": "Excised wound area (cm^2)", "setting": "[3]; 1st day after complete skin excision", "result": 3.33, "unit": "cm^2"}, {"measurement": "Excised wound area (cm^2)", "setting": "[3]; 4th day after complete skin excision", "result": 2.31, "unit": "cm^2"}, {"measurement": "Excised wound area (cm^2)", "setting": "[3]; 7th day after complete skin excision", "result": 1.62, "unit": "cm^2"}, {"measurement": "Excised wound area (cm^2)", "setting": "[3]; 12th day after complete skin excision", "result": "0.52** cm^2"}, {"measurement": "Excised wound area (cm^2)", "setting": "[3]; 15th day after complete skin excision", "result": 0.55, "unit": "cm^2"}, {"measurement": "Excised wound area (cm^2)", "setting": "[3]; 21st day after complete skin excision", "result": 0.44, "unit": "cm^2"}, {"measurement": "Crust formation/number of wound", "setting": "[3]; 21st day after the operation", "result": "0/8"}, {"measurement": "crust formation on the surface of repaired wounds (in words)", "setting": "[3]; 28th day", "result": "no crust formation occurred"}, {"measurement": "Excised wound area (cm^2)", "setting": "[3]; 28th day after complete skin excision", "result": 0.29, "unit": "cm^2"}, {"measurement": "Crust formation/number of wound", "setting": "[3]; 28th day after the operation", "result": "1/8"}, {"measurement": "promoting effect on wound healing (in words)", "setting": "[3]; versus the control group, 10 mg/kg", "result": "significant promoting effect on wound healing at 12th day after the operation; also recorded: promoting effect on healing of epidermis"}]}
